Experimental data: the supplement of paper PMC4862054

Test system: MDA-MB-436
Experiment: normalised response (% of control), CellTiter-Glo; higher = more viable cells (100 = DMSO, 0 = benzethonium chloride kill control)
Settings: incubation time: 72 h
Summary of the method: (§1)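 Breast cancer cell lines (20 µl suspension) were seeded into 384-well plates holding compound at 5 concentrations in 10-fold steps over a compound-specific 10,000-fold range, then incubated 72 h. CellTox Green fluorescence (485/520 nm) was read first, then CellTiter-Glo luminescence after 10 min at room temperature. Each plate was normalised to 0.1 % DMSO (100) and a positive kill control (0). Each value is the normalised signal at a single concentration of the series.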

Structure (SMILES)	normalised response
CNC(=O)c1ccc(N2C(=S)N(c3ccc(C#N)c(C(F)(F)F)c3)C(=O)C2(C)C)cc1F [Enzalutamide] (10 nM)	99.4%
C=C1C[C@@H]2[C@H](CC[C@]3(C)C(=O)CC[C@@H]23)[C@@]2(C)C=CC(=O)C=C12 [Exemestane] (10 nM)	104%
Cc1cc(Nc2cc(CN3CCOCC3)c3nc(C)c(Cc4ccc(Cl)cc4F)n3n2)n[nH]1 [Gandotinib] (10 nM)	104%
O=C(Nc1ccncc1)C(=O)c1cn(Cc2ccc(Cl)cc2)c2ccccc12 [Indibulin] (10 nM)	99.2%
Cc1ccc(NC(=O)c2ccc(CN3CCN(C)CC3)cc2)cc1Nc1nc(-c2cccnc2)cs1 [Masitinib] (10 nM)	101%
Cc1[nH]c2ccccc2c1CCNCc1ccc(/C=C/C(=O)NO)cc1 [Panobinostat] (1 nM)	107%
COCC1(CO)C(=O)C2CCN1CC2 (centres undefined) [Prima-1 Met] (10 nM)	101%

Test system: MDA-MB-468
Experiment: as above
Settings: incubation time: 72 h
Summary of the method: as §1

Structure (SMILES)	normalised response
CCn1c(-c2nonc2N)nc2cnc(Oc3cccc(NC(=O)c4ccc(OCCN5CCOCC5)cc4)c3)cc21 (1 nM)	95.6%
CCn1c(-c2nonc2N)nc2cnc(Oc3cccc(NC(=O)c4ccc(OCCN5CCOCC5)cc4)c3)cc21 (10 nM)	94.3%
N#Cc1ccc(COC[C@H]2O[C@@H](n3c(NCc4ccc(Cl)c(Cl)c4)nc4c(N)ncnc43)[C@H](O)[C@@H]2O)cc1 (10 nM)	101%
COc1cc(O)c2c(c1)/C=C/C[C@H](O)[C@H](O)C(=O)/C=C\C[C@H](C)OC2=O [(5Z)-7-Oxozeaenol] (1 nM)	98%
COc1cc(O)c2c(c1)/C=C/C[C@H](O)[C@H](O)C(=O)/C=C\C[C@H](C)OC2=O [(5Z)-7-Oxozeaenol] (10 nM)	100%
COc1cc(OC2CCN(C)CC2)ccc1Nc1ncc2c(n1)n(C1CCCC1)c(=O)n2C [AZ 3146] (10 nM)	111%
CNC(=O)c1cccc(-c2ccc3c(N4CCOC[C@@H]4C)nc(N4CCOC[C@@H]4C)nc3n2)c1 [AZD2014] (1 nM)	103%
CNC(=O)c1cccc(-c2ccc3c(N4CCOC[C@@H]4C)nc(N4CCOC[C@@H]4C)nc3n2)c1 [AZD2014] (10 nM)	104%
CN(C)c1nc(N(C)C)nc(N(C)C)n1 [Altretamine] (10 nM)	104%
O=C(/C=C/c1cccc(S(=O)(=O)Nc2ccccc2)c1)NO [Belinostat] (10 nM)	105%
Nc1cc(C(F)(F)F)c(-c2cc(N3CCOCC3)nc(N3CCOCC3)n2)cn1 [Buparlisib] (1 nM)	96.3%
Nc1cc(C(F)(F)F)c(-c2cc(N3CCOCC3)nc(N3CCOCC3)n2)cn1 [Buparlisib] (10 nM)	101%
O=P1(N(CCCl)CCCl)NCCCO1 (centres undefined) [Cyclophosphamide] (40 nM)	101%
CNC(=O)c1ccc(N2C(=S)N(c3ccc(C#N)c(C(F)(F)F)c3)C(=O)C2(C)C)cc1F [Enzalutamide] (1 nM)	101%
CNC(=O)c1ccc(N2C(=S)N(c3ccc(C#N)c(C(F)(F)F)c3)C(=O)C2(C)C)cc1F [Enzalutamide] (10 nM)	98.7%
C=C1C[C@@H]2[C@H](CC[C@]3(C)C(=O)CC[C@@H]23)[C@@]2(C)C=CC(=O)C=C12 [Exemestane] (10 nM)	109%
Cc1cc(Nc2cc(CN3CCOCC3)c3nc(C)c(Cc4ccc(Cl)cc4F)n3n2)n[nH]1 [Gandotinib] (10 nM)	101%
O=C(Nc1ccncc1)C(=O)c1cn(Cc2ccc(Cl)cc2)c2ccccc12 [Indibulin] (10 nM)	102%
Cc1ccc(NC(=O)c2ccc(CN3CCN(C)CC3)cc2)cc1Nc1nc(-c2cccnc2)cs1 [Masitinib] (10 nM)	108%
Cc1[nH]c2ccccc2c1CCNCc1ccc(/C=C/C(=O)NO)cc1 [Panobinostat] (1 nM)	103%
COCC1(CO)C(=O)C2CCN1CC2 (centres undefined) [Prima-1 Met] (10 nM)	102%

Test system: HCC1937
Experiment: as above
Settings: incubation time: 72 h
Summary of the method: as §1

Structure (SMILES)	normalised response
CCn1c(-c2nonc2N)nc2cnc(Oc3cccc(NC(=O)c4ccc(OCCN5CCOCC5)cc4)c3)cc21 (1 nM)	104%
CCn1c(-c2nonc2N)nc2cnc(Oc3cccc(NC(=O)c4ccc(OCCN5CCOCC5)cc4)c3)cc21 (10 nM)	104%
N#Cc1ccc(COC[C@H]2O[C@@H](n3c(NCc4ccc(Cl)c(Cl)c4)nc4c(N)ncnc43)[C@H](O)[C@@H]2O)cc1 (10 nM)	98.7%
COc1cc(O)c2c(c1)/C=C/C[C@H](O)[C@H](O)C(=O)/C=C\C[C@H](C)OC2=O [(5Z)-7-Oxozeaenol] (1 nM)	98.7%
COc1cc(O)c2c(c1)/C=C/C[C@H](O)[C@H](O)C(=O)/C=C\C[C@H](C)OC2=O [(5Z)-7-Oxozeaenol] (10 nM)	106%
COc1cc(OC2CCN(C)CC2)ccc1Nc1ncc2c(n1)n(C1CCCC1)c(=O)n2C [AZ 3146] (10 nM)	96.1%
CNC(=O)c1cccc(-c2ccc3c(N4CCOC[C@@H]4C)nc(N4CCOC[C@@H]4C)nc3n2)c1 [AZD2014] (1 nM)	101%
CNC(=O)c1cccc(-c2ccc3c(N4CCOC[C@@H]4C)nc(N4CCOC[C@@H]4C)nc3n2)c1 [AZD2014] (10 nM)	101%
CN(C)c1nc(N(C)C)nc(N(C)C)n1 [Altretamine] (10 nM)	99.3%
O=C(/C=C/c1cccc(S(=O)(=O)Nc2ccccc2)c1)NO [Belinostat] (10 nM)	94.8%
Nc1cc(C(F)(F)F)c(-c2cc(N3CCOCC3)nc(N3CCOCC3)n2)cn1 [Buparlisib] (1 nM)	97.1%
Nc1cc(C(F)(F)F)c(-c2cc(N3CCOCC3)nc(N3CCOCC3)n2)cn1 [Buparlisib] (10 nM)	93.3%
O=P1(N(CCCl)CCCl)NCCCO1 (centres undefined) [Cyclophosphamide] (40 nM)	95.6%
CNC(=O)c1ccc(N2C(=S)N(c3ccc(C#N)c(C(F)(F)F)c3)C(=O)C2(C)C)cc1F [Enzalutamide] (1 nM)	103%
CNC(=O)c1ccc(N2C(=S)N(c3ccc(C#N)c(C(F)(F)F)c3)C(=O)C2(C)C)cc1F [Enzalutamide] (10 nM)	91.3%
C=C1C[C@@H]2[C@H](CC[C@]3(C)C(=O)CC[C@@H]23)[C@@]2(C)C=CC(=O)C=C12 [Exemestane] (10 nM)	103%
Cc1cc(Nc2cc(CN3CCOCC3)c3nc(C)c(Cc4ccc(Cl)cc4F)n3n2)n[nH]1 [Gandotinib] (10 nM)	94.2%
O=C(Nc1ccncc1)C(=O)c1cn(Cc2ccc(Cl)cc2)c2ccccc12 [Indibulin] (10 nM)	98.2%
Cc1ccc(NC(=O)c2ccc(CN3CCN(C)CC3)cc2)cc1Nc1nc(-c2cccnc2)cs1 [Masitinib] (10 nM)	97.4%
Cc1[nH]c2ccccc2c1CCNCc1ccc(/C=C/C(=O)NO)cc1 [Panobinostat] (1 nM)	96.5%
COCC1(CO)C(=O)C2CCN1CC2 (centres undefined) [Prima-1 Met] (10 nM)	99%
